Reference: patent US20020055099A1, “SEQUENTIAL CDNA LIBRARY AND USES THEREOF” (priority 1999, published 2002)

How the values were obtained:
[1] = tested on: HO-1 human melanoma cells; test: SCLA reverse Northern hybridization of arrayed subtracted cDNA library with mRNAs from treated HO-1 cells; assay type: cell-based; settings: IFN-β 2000 units/ml, MEZ 10 ng/ml, staurosporine 500 ng/ml, temporally pooled mRNAs
Description: Staurosporine-treated HO-1 cells were harvested at 4, 8 and 24 hrs after treatment.
For reverse Northern analysis, RNA samples from each time point were pooled and 20 μg of pooled total RNA was reverse transcribed in two reactions into a ^32P-labeled first strand cDNA probe. After heating at 70° C. for 10 min and quenching on ice for two min, a mixture consisting of 10 pmole of T13V and 10 μg of the total RNA mixture in 50 mM Tris-HCl (pH 8.3), 75 mM KCl, 3 mM MgCl2, 10 mM DTT, 0.5 mM DATP, 0.5 mM dGTP, 0.5 mM dTTP, 0.02 mM dCTP, 5 U RNase inhibitor (Gibco BRL), 100 μCi dCTP (3000 Ci/mmole from Amersham) and 200 U Superscript RT II (Gibco BRL) was added (final 25 μl). The reaction mixture was incubated at 42° C. for one hr and at 37° C. for 30 min after addition of 2 μl of RNase H (10U, Gibco BRL). The membrane was hybridized at 42° C. overnight in a 50% formamide hybridization solution. The hybridized membrane was washed 2× at room temperature for 15 min with 2× SSC containing 0.1% SDS and then washed for at least one hr at 55° C. with 0.1× SSC containing 0.1% SDS. The membranes were exposed for different times to autoradiography.
After subtraction hybridization, a temporally spaced amplified subtracted (TSS) cDNA library (consisting of 4,979 plaques) was picked and plated individually (arrayed) in thirteen 384-well microtiter plates. […] This approach permitted the identification of cDNAs displaying altered expression as a function of the specific treatment protocol.

[2] = tested on: HO-1 human melanoma cells; settings: HO-1 cells, cited from earlier work
[3] = IFN-β 2000 units/ml, MEZ 10 ng/ml where printed

Structure (SMILES) | clones induced only by the agent (uniquely positive after a single treatment protocol) [1] [clones] | effect on HO-1 cell growth [2, 3] | melanin synthesis / differentiation marker [2, 3] | morphological differentiation ([2]; MEZ 10 ng/ml) | positive clones (DMAC) identified after treatment, of 427 positive clones [1] [clones] | apoptosis [2]
C=C(C)[C@@]12O[C@@]3(c4ccccc4)O[C@@H]1[C@@H]1[C@@H]4O[C@]4(CO)[C@@H](O)[C@]4(O)C(=O)C(C)=C[C@H]4[C@@]1(O3)[C@H](C)[C@H]2OC(=O)/C=C/C=C/c1ccccc1 [MEZ, mezerein] | 12 | growth suppression | elevated melanin levels | exhibit morphological differentiation | – | –
CN[C@@H]1C[C@H]2O[C@@](C)([C@@H]1OC)n1c3ccccc3c3c4c(c5c6ccccc6n2c5c31)C(=O)NC4 [staurosporine] | 25 | – | – | – | 107 | induces apoptosis
